14 compounds from US9139581B2 (PORTOLA PHARMACEUTICALS, INC., priority 2008, dated 2015) can be followed below.

For one assay, the target named is T1, full length active recombinant SYK enzyme (Homo sapiens, UniProt P43405).
T1 construct: full length active recombinant SYK enzyme (Millipore, Calif.); purchased Millipore
The assay can be described thus: Inhibition of Syk tyrosine phosphorylation activity (LANCE TR-FRET). In kind it is biochemical. To be noted: Table 3; 1 nM SYK, 100 μM ATP; read-out: Syk IC50 code. As for the experimental part: The in vitro and in vivo human syk activities of the inventive compounds can be determined by various procedures known in the art, such as a test for their ability to inhibit the activity of human plasma syk. […] Inhibition of Syk Tyrosine Phosphorylation Activity Potency of candidate molecules for inhibiting syk tyrosine phosphorylation activity is assessed by measuring the ability of a test compound to inhibit syk-mediated tyrosine phosphorylation of a syk-specific substrate. SYK tyrosine phosphorylation activity is measured using the LANCETM Technology developed by Perkin Elmer Life and Analytical Sciences (Boston, Mass.). LANCETM refers to homogeneous time resolved fluorometry applications using techniques such as time-resolved fluorescence resonance energy transfer assay (TR-FRET) (see generally for procedures in Perkin Elmer Application Note-How to Optimize a Tyrosine Kinase Assay Using Time Resolved Fluorescence-Based LANCE Detection, wwww.perkinelmer.com/lifesciences). The assay principle involves detection of a phosphorylated substrate using energy transfer from a phosphospecific europium-labeled antibody to streptavidin-allophycocyanin as an acceptor. To test the ability of candidate molecules to inhibit SYK tyrosine phosphorylation activity, molecules are reconstituted in 30% DMSO and serially diluted 1:3 with the final dilution containing DMSO in the absence of the candidate molecule. The final DMSO concentration in the assay is 3%. Kinase assays are performed as a two part reaction. The first reaction is a kinase reaction and which comprises of a candidate molecule, full length active recombinant SYK enzyme (Millipore, Calif.) and biotin-labeled SYK-specific substrate biotin-[…]-OH. The second reaction involves termination of the kinase reaction and the simultaneous addition of the detection reagents-europium-labeled anti-phosphotyrosine reagent (Eu-W1024-PY100, Perkin Elmer, Boston, Mass.) and Streptavidin-Allophycocyanin detection reagent (SA-APC, Prozyme, Calif.). The kinase reaction is performed in a black U-bottom 96-well microtitre plate. […] The reaction is allowed to proceed for 1 hour at room temperature. […] The detection reagents are added to the reaction mixture at the following dilutions-1:500 for Eu-W1024-PY100 and 1:250 for SA-APC. The kinase reaction is terminated by the addition of 50 μL quench buffer containing the detection reagents. The detection is allowed to proceed for 1 hr at room temperature. Detection of the phosphorlated substrate in the absence and presence of inhibitors is measured in the TR-FRET instrument, Analyst HT ([…], Sunnyvale, Calif.) and the condition for measurements are set up using CriterionHost Release 2.0 ([…], Sunnyvale, Calif.). […] IC50s were derived by non-linear regression analysis.
(TR-FRET usually uses a lanthanide donor and a delayed reading to cut background.)
For `CC(=O)N1CCN(c2ccc(Nc3nc(NCC4CCNCC4)c4c(-c5ccncc5)c[nH]c4n3)cc2)CC1` [Example 44, 1-(4-(4-(4-(piperidin-4-ylmethylamino)-5-(pyridin-4-yl)-7H-pyrrolo[2,3-d]pyrimidin-2-ylamino)phenyl)piperazin-1-yl)ethanone], the IC50 – broadly, the concentration at which inhibition is half-maximal – is more than 1000 nM.
As for `C[C@@H](CO)Nc1nc(Nc2ccc(N3CCNCC3)cc2)nc2[nH]ccc12` [Example 99B, (S)-2-(2-(4-(piperazin-1-yl)phenylamino)-7H-pyrrolo[2,3-d]pyrimidin-4-ylamino)propan-1-ol], the IC50 fell in the range of 100 to 1000 nM.
On to `CN1C(=O)CCc2cc(Nc3nc(NCc4ccccc4)c4c(C#N)c[nH]c4n3)ccc21` [Example 115, 4-(Benzylamino)-2-(1-methyl-2-oxo-1,2,3,4-tetrahydroquinolin-6-ylamino)-7H-pyrrolo[2,3-d]pyrimidine-5-carbonitrile], for which the IC50 lay within 100 to 1000 nM.
Same read-out and setting: the same measure for `NCC1CCN(c2nc(Nc3ccc4c(c3)CCC(=O)N4)ncc2C2CC2)CC1` [Example 139, 6-(4-(4-(aminomethyl)piperidin-1-yl)-5-cyclopropylpyrimidin-2-ylamino)-3,4-dihydroquinolin-2(1H)-one]: 100 to 1000 nM; for `Nc1nc(Nc2ccc3cn[nH]c3c2)nc2[nH]ccc12` [Example 79, N^2-(1H-indazol-6-yl)-7H-pyrrolo[2,3-d]pyrimidin-2,4-diamine]: 100 to 1000 nM; for `CCCCOC(=O)CN(C)S(=O)(=O)c1ccc(Nc2nc(NC3CCC3)c3cc[nH]c3n2)cc1` [Example 53, butyl 2-(4-(4-(cyclobutylamino)-7H-pyrrolo[2,3-d]pyrimidin-2-ylamino)-N-methylphenylsulfonamido)acetate]: 100 to 1000 nM.
With `CC(=O)N1CCN(c2ccc(Nc3ncc(F)c(N4CCC(CC(N)=O)CC4)n3)cc2)CC1` [Example 126, 2-(1-(2-(4-(4-acetylpiperazin-1-yl)phenylamino)-5-fluoropyrimidin-4-yl)piperidin-4-yl)acetamide], the IC50 is 100 to 1000 nM.
For `CNc1nc(Nc2ccc(N(C)C(=O)C3CC3)cc2)nc2[nH]ccc12` [Example 82, N-(4-(4-(methylamino)-7H-pyrrolo[2,3-d]pyrimidin-2-ylamino)phenyl)-N-methylcyclopropanecarboxamide], the IC50 was 100 to 1000 nM.
Same read-out and setting: the same measure for `CC(=O)N1CCN(c2ccc(Nc3nc(NC4CC4)c4c(C#N)c[nH]c4n3)cc2)CC1` [Example 107, 2-(4-(4-acetylpiperazin-1-yl)phenylamino)-4-(cyclopropylamino)-7H-pyrrolo[2,3-d]pyrimidine-5-carbonitrile]: 10 to 100 nM; for `CCCCOC(C)c1c[nH]c2nc(Nc3ccc4cn[nH]c4c3)nc(NC3CC3)c12` (centres unmarked) [Example 41, 5-(1-butoxyethyl)-N4-cyclopropyl-N2-(1H-indazol-6-yl)-7H-pyrrolo[2,3-d]pyrimidine-2,4-diamine]: 100 to 1000 nM.
The same measure, in the same setting: the same measure for `CC(=O)N(C)c1ccc(Nc2nc(NCCCCCN)c3cc[nH]c3n2)cc1` [Example 65, N-(4-(4-(5-aminopentylamino)-7H-pyrrolo[2,3-d-]pyrimidin-2-ylamino)phenyl)-N-methylacetamide]: 100 to 1000 nM; for `O=C1CNc2nc(Nc3ccc4cn[nH]c4c3)nc(NC3CCC3)c21` [Example 51, 2-(1H-indazol-6-ylamino)-4-(cyclobutylamino)-6,7-dihydropyrrolo[2,3-d]pyrimidin-5-one]: 100 to 1000 nM; for `CC(=O)N(C)c1ccc(Nc2nc(NC3CCCCC3N)c3cc[nH]c3n2)cc1` (stereo not drawn) [Example 63, N-(4-(4-(2-aminocyclohexylamino)-7H-pyrrolo[2,3-d-]pyrimidin-2-ylamino)phenyl)-N-methylacetamide]: more than 1000 nM.

Staying with this assay, now noted: Table 4; 1 nM SYK, 100 μM ATP; read-out: syk IC50.
As to `N[C@H]1CCCN(c2nc(Nc3ccc4cn[nH]c4c3)nc3[nH]ccc23)C1` [(S)-4-(3-aminopiperidin-1-yl)-N-(1H-indazol-6-yl)-7H-pyrrolo[2,3-d]pyrimidin-2-amine], the IC50 was 100 to 1000 nM.
